Calls of active or inactive are those of the source. No rule for the calls is given here.
Test system: CCRIS mutagenicity, Ames/micronucleus/aberration tests
Test: CCRIS mutagenicity studies
[1] = Test System: AMES SALMONELLA TYPHIMURIUM, Strain/Indicator: TA98, Metabolic Activation: NONE, Method: PREINCUBATION
[2] = Test System: AMES SALMONELLA TYPHIMURIUM, Strain/Indicator: TA100, Metabolic Activation: NONE, Method: PREINCUBATION
[3] = Test System: AMES SALMONELLA TYPHIMURIUM, Strain/Indicator: TA98, Metabolic Activation: NONE, Method: STANDARD PLATE
[4] = Test System: AMES SALMONELLA TYPHIMURIUM, Strain/Indicator: TA100, Metabolic Activation: NONE, Method: STANDARD PLATE
[5] = Test System: AMES SALMONELLA TYPHIMURIUM, Strain/Indicator: TA102, Metabolic Activation: NONE, Method: STANDARD PLATE

COc1cc(OC)c(OC)cc1C=O
mutagenic call (Test System: AMES SALMONELLA TYPHIMURIUM, Strain/Indicator: TA98, Metabolic Activation: HAMSTER, LIVER, S-9, AROCLOR 1254 (10%), Method: PREINCUBATION): inactive; negative
mutagenic call [1]: inactive; negative
mutagenic call (Test System: AMES SALMONELLA TYPHIMURIUM, Strain/Indicator: TA98, Metabolic Activation: RAT, LIVER, S-9, AROCLOR 1254 (10%), Method: PREINCUBATION): inactive; negative
mutagenic call (Test System: AMES SALMONELLA TYPHIMURIUM, Strain/Indicator: TA100, Metabolic Activation: HAMSTER, LIVER, S-9, AROCLOR 1254 (10%), Method: PREINCUBATION): inactive; negative
mutagenic call [2]: inactive; negative
mutagenic call (Test System: AMES SALMONELLA TYPHIMURIUM, Strain/Indicator: TA100, Metabolic Activation: RAT LIVER S-9, AROCLOR 1254, Method: PREINCUBATION): inactive; negative
mutagenic call (Test System: AMES SALMONELLA TYPHIMURIUM, Strain/Indicator: TA100, Metabolic Activation: RAT, LIVER, S-9, AROCLOR 1254 (10%), Method: PREINCUBATION): inactive; negative
mutagenic call (Test System: AMES SALMONELLA TYPHIMURIUM, Strain/Indicator: TA102, Metabolic Activation: NONE, Method: PREINCUBATION): inactive; negative
mutagenic call (Test System: AMES SALMONELLA TYPHIMURIUM, Strain/Indicator: TA102, Metabolic Activation: RAT LIVER S-9, AROCLOR 1254, Method: PREINCUBATION): inactive; negative
mutagenic call (Test System: AMES SALMONELLA TYPHIMURIUM, Strain/Indicator: TA104, Metabolic Activation: NONE, Method: PREINCUBATION): inactive; negative
mutagenic call (Test System: AMES SALMONELLA TYPHIMURIUM, Strain/Indicator: TA104, Metabolic Activation: RAT LIVER S-9, AROCLOR 1254, Method: PREINCUBATION): inactive; negative
mutagenic call (Test System: AMES SALMONELLA TYPHIMURIUM, Strain/Indicator: TA1535, Metabolic Activation: HAMSTER, LIVER, S-9, AROCLOR 1254 (10%), Method: PREINCUBATION): inactive; negative
mutagenic call (Test System: AMES SALMONELLA TYPHIMURIUM, Strain/Indicator: TA1535, Metabolic Activation: NONE, Method: PREINCUBATION): inactive; negative
mutagenic call (Test System: AMES SALMONELLA TYPHIMURIUM, Strain/Indicator: TA1535, Metabolic Activation: RAT, LIVER, S-9, AROCLOR 1254 (10%), Method: PREINCUBATION): inactive; negative
mutagenic call (Test System: AMES SALMONELLA TYPHIMURIUM, Strain/Indicator: TA1537, Metabolic Activation: HAMSTER, LIVER, S-9, AROCLOR 1254 (10%), Method: PREINCUBATION): inactive; negative
mutagenic call (Test System: AMES SALMONELLA TYPHIMURIUM, Strain/Indicator: TA1537, Metabolic Activation: NONE, Method: PREINCUBATION): inactive; negative
mutagenic call (Test System: AMES SALMONELLA TYPHIMURIUM, Strain/Indicator: TA1537, Metabolic Activation: RAT, LIVER, S-9, AROCLOR 1254 (10%), Method: PREINCUBATION): inactive; negative
mutagenic call (Test System: MOUSE LYMPHOMA, Strain/Indicator: L5178Y (TK+/TK-), Metabolic Activation: RAT, LIVER, S-9, AROCLOR 1254, Method: SUSPENSION/PLATE): active; positive. reevaluation of results: equivocal
mutagenic call (Test System: Mouse lymphoma, Strain/Indicator: L5178Y (tk+/tk-), Metabolic Activation: None, Method: Suspension/plate): inactive; negative

CCc1c2ccccc2cc2c3c(ccc12)[C@H](O)[C@@H](O)[C@H]1O[C@@H]31
mutagenic call [1]: active; positive
mutagenic call [2]: active; positive
mutagenic call (Test System: CHINESE HAMSTER V-79, Strain/Indicator: V-79/6-THIOGUANINE, Metabolic Activation: NONE): active; positive

CCC1C(C)=NN=C(c2ccc(OC)c(OC)c2)c2cc(OC)c(OC)cc21 (centres undefined)
mutagenic call (Test System: AMES SALMONELLA TYPHIMURIUM, Strain/Indicator: TA97, Metabolic Activation: NONE, Method: STANDARD PLATE): inactive; negative
mutagenic call (Test System: AMES SALMONELLA TYPHIMURIUM, Strain/Indicator: TA97, Metabolic Activation: RAT LIVER S-9, AROCLOR 1254, Method: STANDARD PLATE): inactive; negative
mutagenic call [3]: inactive; negative
mutagenic call (Test System: AMES SALMONELLA TYPHIMURIUM, Strain/Indicator: TA98, Metabolic Activation: RAT LIVER S-9, AROCLOR 1254, Method: STANDARD PLATE): inactive; negative
mutagenic call [4]: inactive; negative
mutagenic call (Test System: AMES SALMONELLA TYPHIMURIUM, Strain/Indicator: TA100, Metabolic Activation: RAT LIVER S-9, AROCLOR 1254, Method: STANDARD PLATE): inactive; negative
mutagenic call [5]: inactive; negative
mutagenic call (Test System: AMES SALMONELLA TYPHIMURIUM, Strain/Indicator: TA102, Metabolic Activation: RAT LIVER S-9, AROCLOR 1254, Method: STANDARD PLATE): inactive; negative
mutagenic call (Test System: AMES SALMONELLA TYPHIMURIUM, Strain/Indicator: TA1537, Metabolic Activation: NONE, Method: STANDARD PLATE): inactive; negative
mutagenic call (Test System: AMES SALMONELLA TYPHIMURIUM, Strain/Indicator: TA1537, Metabolic Activation: RAT LIVER S-9, AROCLOR 1254, Method: STANDARD PLATE): inactive; negative

O=[N+]([O-])c1cccc2c1-c1ccccc1C2
mutagenic call (End Point: IN VITRO CHROMOSOMAL ABERRATIONS, Test System: CHINESE HAMSTER LUNG (CHL) CELLS, Metabolic Activation: NONE): active; positive
mutagenic call (End Point: IN VITRO CHROMOSOMAL ABERRATIONS, Test System: CHINESE HAMSTER LUNG (CHL) CELLS, Metabolic Activation: RAT, LIVER, S-9, KC-400): active; positive

CNNc1ccn([C@@H]2O[C@H](CO)[C@@H](O)[C@H]2O)c(=O)n1
mutagenic call (Test System: CHINESE HAMSTER V-79, Strain/Indicator: V-79/6-THIOGUANINE, Metabolic Activation: NONE, Method: REPLATING): active; positive

O=C1c2ccccc2Cc2ccccc21
mutagenic call [3]: active; positive
mutagenic call [4]: inactive; negative
mutagenic call (Test System: AMES SALMONELLA TYPHIMURIUM, Strain/Indicator: TA100, Metabolic Activation: RAT, LIVER, S-9, AROCLOR 1254, Method: STANDARD PLATE): inactive; negative

[Cl][Pd-2]([Cl])([Cl])[Cl]
mutagenic call (Test System: AMES SALMONELLA TYPHIMURIUM, Strain/Indicator: TA97A, Metabolic Activation: NONE, Method: STANDARD PLATE): inactive; negative
mutagenic call (Test System: AMES SALMONELLA TYPHIMURIUM, Strain/Indicator: TA97A, Metabolic Activation: RAT, LIVER, S-9, PHENOBARBITAL AND 5,6-BENZOFLAVONE, Method: STANDARD PLATE): inactive; negative
mutagenic call (Test System: AMES SALMONELLA TYPHIMURIUM, Strain/Indicator: TA97A, Metabolic Activation: RAT, LIVER, S-9, PHENOBARBITAL AND BETA-NAPHTHOFLAVONE, Method: STANDARD PLATE): inactive; negative
mutagenic call [1]: inactive; negative
mutagenic call [3]: inactive; negative
mutagenic call (Test System: AMES SALMONELLA TYPHIMURIUM, Strain/Indicator: TA98, Metabolic Activation: RAT, LIVER, S-9, AROCLOR 1254, Method: PREINCUBATION): inactive; negative
mutagenic call (Test System: AMES SALMONELLA TYPHIMURIUM, Strain/Indicator: TA98, Metabolic Activation: RAT, LIVER, S-9, PHENOBARBITAL AND 5,6-BENZOFLAVONE, Method: STANDARD PLATE): inactive; negative
mutagenic call (Test System: AMES SALMONELLA TYPHIMURIUM, Strain/Indicator: TA98, Metabolic Activation: RAT, LIVER, S-9, PHENOBARBITAL AND BETA-NAPHTHOFLAVONE, Method: STANDARD PLATE): inactive; negative
mutagenic call [2]: inactive; negative
mutagenic call [4]: inactive; negative
mutagenic call (Test System: AMES SALMONELLA TYPHIMURIUM, Strain/Indicator: TA100, Metabolic Activation: RAT, LIVER, S-9, AROCLOR 1254, Method: PREINCUBATION): inactive; negative
mutagenic call (Test System: AMES SALMONELLA TYPHIMURIUM, Strain/Indicator: TA100, Metabolic Activation: RAT, LIVER, S-9, PHENOBARBITAL AND 5,6-BENZOFLAVONE, Method: STANDARD PLATE): inactive; negative
mutagenic call (Test System: AMES SALMONELLA TYPHIMURIUM, Strain/Indicator: TA100, Metabolic Activation: RAT, LIVER, S-9, PHENOBARBITAL AND BETA-NAPHTHOFLAVONE, Method: STANDARD PLATE): inactive; negative
mutagenic call [5]: inactive; negative
mutagenic call (Test System: AMES SALMONELLA TYPHIMURIUM, Strain/Indicator: TA102, Metabolic Activation: RAT, LIVER, S-9, PHENOBARBITAL AND 5,6-BENZOFLAVONE, Method: STANDARD PLATE): inactive; negative
mutagenic call (Test System: AMES SALMONELLA TYPHIMURIUM, Strain/Indicator: TA102, Metabolic Activation: RAT, LIVER, S-9, PHENOBARBITAL AND BETA-NAPHTHOFLAVONE, Method: STANDARD PLATE): inactive; negative

Source: PubChem BioAssay AID1259407 (Chemical Carcinogenesis Research Information System (CCRIS), 2018)
